Reference: the supplement of paper PMC11208160

assay: recombinant UMI read abundance after kanamycin selection (control-corrected) (log10(CPM+1)); higher = more efficient recombination; extreme values may be limits of the assay; sequences stand for … in AGTGCAGAGAAAATCGGCCAGTTTTCTCTGCCTGCAGTCCGCATGCCGTGGGACCCCTTGGGTTCTAACCTGTTGCCTAGATTTATGCAGCGGACTGCCTTTCTCCCAAAGTGATAAACCGG…AGGTTGGTTTCACT; site = the 11-nt donor
Summary of the method: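 Each donor and donor-binding-loop pair was tracked by a 12-nt UMI on a plasmid carrying a promoterless kanamycin gene. With a second plasmid supplying a fixed target and T7-inducible IS621 bridge recombinase, the pool was plated in Escherichia coli on IPTG (0.07 mM) plus kanamycin or unselected. Sequencing of recombinant UMIs across the donor–target junction gave counts expressed as log10(CPM+1) after replicate averaging and control-derived scaling.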

Row | Sequence | recombinant UMI read abundance (log10)
1 | CGGAATGCATGGACCGGTTTTCCCGGTAATCCGTATTTGTT (site CGGAATACTAA) | 2
2 | CGGAATGCATGGACCGGTTTTCCCGGTAATCCGTATTTGTT (site CGGAATCCTAA) | 0.00325
3 | CGGAATGCATGGACCGGTTTTCCCGGTAATCCGTATTTGTT (site CGGAATGCTAA) | 2.84
4 | CGGAATGCATGGACCGGTTTTCCCGGTAATCCGTATTTGTT (site CGGAATTCTAA) | 0
5 | CGGACACCATGGACCGGTTTTCCCGGTAATCCGTATTTGCT (site CGGACAACTAG) | 0
6 | CGGACACCATGGACCGGTTTTCCCGGTAATCCGTATTTGCT (site CGGACACCTAG) | 0
7 | CGGACACCATGGACCGGTTTTCCCGGTAATCCGTATTTGCT (site CGGACAGCTAG) | 0.00902
8 | CGGACACCATGGACCGGTTTTCCCGGTAATCCGTATTTGCT (site CGGACATCTAG) | 0
9 | CGGACAGCATGGACCGGTTTTCCCGGTAATCCGTATTTGCT (site CGGACAACTAG) | 0.393
10 | CGGACAGCATGGACCGGTTTTCCCGGTAATCCGTATTTGCT (site CGGACACCTAG) | 0
11 | CGGACAGCATGGACCGGTTTTCCCGGTAATCCGTATTTGCT (site CGGACAGCTAG) | 2.07
12 | CGGACAGCATGGACCGGTTTTCCCGGTAATCCGTATTTGCT (site CGGACATCTAG) | 0
13 | CGGACATCATGGACCGGTTTTCCCGGTAATCCGTATTTGTT (site CGGACATCTAA) | 2.07
14 | CGGACATCATGGACCGGTTTTCCCGGTAATCCGTATTTGTT (site CGGACATCTAC) | 0.00517
15 | CGGACATCATGGACCGGTTTTCCCGGTAATCCGTATTTGTT (site CGGACATCTAG) | 0
16 | CGGACATCATGGACCGGTTTTCCCGGTAATCCGTATTTGTT (site CGGACATCTAT) | 0
17 | CGGACTCCATGGACCGGTTTTCCCGGTAATCCGTATTTGTG (site CGGAATCCTAA) | 0.00428
18 | CGGACTCCATGGACCGGTTTTCCCGGTAATCCGTATTTGTG (site CGGACTCCTCA) | 0.0192
19 | CGGAGATCATGGACCGGTTTTCCCGGTAATCCGTATTTGCT (site CGGAAATCTAG) | 1.27
20 | CGGAGATCATGGACCGGTTTTCCCGGTAATCCGTATTTGCT (site CGGACATCTAG) | 0
21 | CGGAGATCATGGACCGGTTTTCCCGGTAATCCGTATTTGCT (site CGGAGATCTAG) | 3.03
22 | CGGAGATCATGGACCGGTTTTCCCGGTAATCCGTATTTGCT (site CGGATATCTAG) | 0
23 | CGGAGGACATGGACCGGTTTTCCCGGTAATCCGTATTTGCC (site CGGAGGACTGG) | 2.76

Row | Sequence | recombinant UMI read abundance (log10)
24 | CGGAGTCCATGGACCGGTTTTCCCGGTAATCCGTATTTGTC (site CGGAATCCTAA) | 0
25 | CGGAGTCCATGGACCGGTTTTCCCGGTAATCCGTATTTGTC (site CGGAGTCCTGA) | 1.34
26 | CGGATGACATGGACCGGTTTTCCCGGTAATCCGTATTTGAT (site CGGATGACTAT) | 2.14
27 | CGGATTCCATGGACCGGTTTTCCCGGTAATCCGTATTTGTA (site CGGAATCCTAA) | 0.0133
28 | CGGATTCCATGGACCGGTTTTCCCGGTAATCCGTATTTGTA (site CGGATTCCTTA) | 0
29 | CGGATTTCATGGACCGGTTTTCCCGGTAATCCGTATTTGTT (site CGGAATCCTAA) | 0
30 | CGGATTTCATGGACCGGTTTTCCCGGTAATCCGTATTTGTT (site CGGATTTCTAA) | 0.891
31 | CGGCAACCATGGACCGGTTTTCCCGGTAATCCGTATTTGAT (site CGGAAACCTAT) | 0
32 | CGGCAACCATGGACCGGTTTTCCCGGTAATCCGTATTTGAT (site CGGCAACCTAT) | 0
33 | CGGCAACCATGGACCGGTTTTCCCGGTAATCCGTATTTGAT (site CGGGAACCTAT) | 0
34 | CGGCAACCATGGACCGGTTTTCCCGGTAATCCGTATTTGAT (site CGGTAACCTAT) | 0
35 | CGGCACCCATGGACCGGTTTTCCCGGTAATCCGTATTTGTT (site CGGAATCCTAA) | 0.00519
36 | CGGCACCCATGGACCGGTTTTCCCGGTAATCCGTATTTGTT (site CGGCACCCTAA) | 0.393
37 | CGGCATCCATGGACCGGTTTTCCCGGTAATCCGTATTTGTC (site CGGCATCCTGA) | 0
38 | CGGCATGCATGGACCGGTTTTCCCGGTAATCCGTATTTGTT (site CGGAATCCTAA) | 0.00719
39 | CGGCATGCATGGACCGGTTTTCCCGGTAATCCGTATTTGTT (site CGGCATGCTAA) | 2.31
40 | CGGCCGTCATGGACCGGTTTTCCCGGTAATCCGTATTTGAT (site CGGCCGTCTAT) | 0.968
41 | CGGCGGCCATGGACCGGTTTTCCCGGTAATCCGTATTTGTC (site CGGCGGCCTGA) | 0.965
42 | CGGCTGCCATGGACCGGTTTTCCCGGTAATCCGTATTTGCA (site CGGCTGCCTTG) | 1.18
43 | CGGCTGGCATGGACCGGTTTTCCCGGTAATCCGTATTTGGT (site CGGCTGGCTAC) | 1.17
44 | CGGGAACCATGGACCGGTTTTCCCGGTAATCCGTATTTGAA (site CGGGAACCTAT) | 0
45 | CGGGAACCATGGACCGGTTTTCCCGGTAATCCGTATTTGAA (site CGGGAACCTCT) | 0.00576
46 | CGGGAACCATGGACCGGTTTTCCCGGTAATCCGTATTTGAA (site CGGGAACCTGT) | 0

Row | Sequence | recombinant UMI read abundance (log10)
47 | CGGGAACCATGGACCGGTTTTCCCGGTAATCCGTATTTGAA (site CGGGAACCTTT) | 0
48 | CGGGAGCCATGGACCGGTTTTCCCGGTAATCCGTATTTGCT (site CGGGAGCCTAG) | 0.17
49 | CGGGAGGCATGGACCGGTTTTCCCGGTAATCCGTATTTGCC (site CGGGAGACTGG) | 0
50 | CGGGAGGCATGGACCGGTTTTCCCGGTAATCCGTATTTGCC (site CGGGAGCCTGG) | 0
51 | CGGGAGGCATGGACCGGTTTTCCCGGTAATCCGTATTTGCC (site CGGGAGGCTGG) | 0.183
52 | CGGGAGGCATGGACCGGTTTTCCCGGTAATCCGTATTTGCC (site CGGGAGTCTGG) | 0
53 | CGGGAGTCATGGACCGGTTTTCCCGGTAATCCGTATTTGAC (site CGGGAGTCTGA) | 2.28
54 | CGGGAGTCATGGACCGGTTTTCCCGGTAATCCGTATTTGAC (site CGGGAGTCTGC) | 1.66
55 | CGGGAGTCATGGACCGGTTTTCCCGGTAATCCGTATTTGAC (site CGGGAGTCTGG) | 1.25
56 | CGGGAGTCATGGACCGGTTTTCCCGGTAATCCGTATTTGAC (site CGGGAGTCTGT) | 0.147
57 | CGGGAGTCATGGACCGGTTTTCCCGGTAATCCGTATTTGGT (site CGGGAGTCTAC) | 2.11
58 | CGGGATCCATGGACCGGTTTTCCCGGTAATCCGTATTTGTA (site CGGAATCCTAA) | 0
59 | CGGGATCCATGGACCGGTTTTCCCGGTAATCCGTATTTGTA (site CGGGATCCTTA) | 1.69
60 | CGGGATTCATGGACCGGTTTTCCCGGTAATCCGTATTTGCC (site CGGGAATCTGG) | 0.816
61 | CGGGATTCATGGACCGGTTTTCCCGGTAATCCGTATTTGCC (site CGGGACTCTGG) | 2.97
62 | CGGGATTCATGGACCGGTTTTCCCGGTAATCCGTATTTGCC (site CGGGAGTCTGG) | 1.18
63 | CGGGATTCATGGACCGGTTTTCCCGGTAATCCGTATTTGCC (site CGGGATTCTGG) | 2.58
64 | CGGGATTCATGGACCGGTTTTCCCGGTAATCCGTATTTGTT (site CGGAATCCTAA) | 0
65 | CGGGATTCATGGACCGGTTTTCCCGGTAATCCGTATTTGTT (site CGGGATTCTAA) | 2.91
66 | CGGGGTACATGGACCGGTTTTCCCGGTAATCCGTATTTGTA (site CGGGGTACTTA) | 2.49
67 | CGGGGTGCATGGACCGGTTTTCCCGGTAATCCGTATTTGGT (site CGGGGTGCTAC) | 1.25
68 | CGGGTCACATGGACCGGTTTTCCCGGTAATCCGTATTTGTC (site CGGGTCACTGA) | 3.01
